# Results: patent publication US5968526A, “T cell epitopes of the major allergens from Dermatophagoides (house dust mite)” (Immulogic Pharamaceutical Corporation, priority 1995, dated 1999)
# Key:
# [1] = system: T cell lines primed in vitro to Der f II; assay: secondary proliferation of Der f II-primed T cell lines (Examples IX, X, XI); format: cell-based, human; settings: for T cell reactivity: overlapping Der f II peptides, 10 positive experiments, FIG. 10; for T cell response: patient 384, recombinant Der f II primed, data not shown
# Protocol: Experiments similar to those of Example V were performed to determine the T cell-reactive areas of the Der f II protein. For example, PBMC from house dust mite-allergic patient 384 were stimulated in vitro with purified recombinant Der f II and the T cell line was then challenged in the presence of x-irradiated (25,000 Rads) autologous Epstein-Barr virus transformed B cells as antigen presenting cells with various overlapping […]. The results of this proliferation assay indicate that T cells from this particular patient respond well to peptides DF II-1, DF II-2, DF II-3.1, DF II-4.5, DF II-15, DF II-16, and DF I-19.1 (data not shown).
# The above procedure was followed with 10 patients, except in individual cases, T cell lines were primed by stimulating the patient PBMC with 20 μg/ml or 3 μg/ml purified native Der f II, and were assayed in the presence of x-irradiated (3500 Rads) autologous PBMC as antigen-presentingcells.
# A study similar to that described in Example VII was carried out to determine the T cell cross-reactivity of the Der p II and Der f II proteins. T cells primed with the Der f II protein were challenged with various Der f II peptides and a set of substantially matching Der p II peptides. […]
# [2] = system: T cell lines primed in vitro to Der p II; assay: secondary proliferation of Der p II-primed T cell lines (Examples VIII, X, XI); format: cell-based, human; settings: Der p II primed; 26 positive experiments; FIG. 12
# Protocol: Experiments similar to those of Example V were performed to determine the T cell-reactive areas of the Der p II protein. For example, PBMC from house dust mite-allergic patient 348 were isolated as described in Example V and were stimulated in vitro with 20 μg/ml purified native Der p II.
# The above procedure was followed with a number of patients except in individual cases, T cell lines were primed with recombinant Der p II at 20 μg/ml or at 3 μg/ml and x-irradiated (3500 Rads) autologous PBMC were used as antigen-presenting cells. The data was analyzed as described in Example V, except the ranked sum of peptide responses was analyzed assigning a value of 3, 2 or 1 to the three highest S.I. responses.
# A study similar to that described in Example VII was carried out to determine the T cell cross-reactivity of the Der p II and Der f II proteins. T cells primed with the Der f II protein were challenged with various Der f II peptides and a set of substantially matching Der p II peptides.
# Another experiment following the procedure described in Example VIII analyzed the response of 29 patients primed in vitro to the Der p II protein and challenged with selected peptides derived from the Der p II sequence.
# [3] = system: T cell lines primed in vitro with Der p I; assay: T cell proliferation with fine map and modified Group I peptides (Example XIV); format: cell-based, human; settings: for T cell response, Group I peptides: FIGS. 31a-b
# Protocol: Long term T cell lines were established by stimulation of 2×10^6 PBL/ml in bulk cultures of complete medium (RPMI-1640, 2 mM L-glutamine, 100 U/ml penicillin/streptomycin, 5×10^-5 M 2-mercaptoethanol, and 10 mM HEPES supplemented with 5% heat inactivated human AB serum) with 30 μg/ml of purified native Der p I or Der p II for 5-6 days at 37° C. in a humidified 5% CO2 incubator to select for house dust mite protein allergen reactive T cells. This amount of priming antigen was determined to be optimal for the activation of T cells from house dust mite allergic patients. Viable cells were purified by LSM centrifugation and cultured in complete medium supplemented with 5 units recombinant human IL-2/ml and 5 units recombinant human IL-4/ml for up to three weeks until the cells no longer responded to lymphokines and were considered "rested". The ability of the T cells to proliferate to selected peptides, purified Der p I or Der p II, or positive (PHA) controls or negative controls (medium only) was then assessed. For assay, 2×10^4 rested cells were restimulated in the presence of 2×10^4 autologous Epstein-Barr virus (EBV)-transformed B cells (prepared as described below) (gamma-irradiated with 25,000 RADS) or with 5×10^4 autologous PBMs (gamma-irradiated with 3500 RADS), with 2-50 μg/ml of purified native Der p I or Der p II in a volume of 200 μl complete medium in duplicate or triplicate wells in 96-well round bottom plates for 3 days. Each well then received 1 μCi tritiated thymidine for 16-20 hours. The counts incorporated were collected onto glass fiber filter mats and processed for liquid scintillation counting. […] The titrations were used to optimize the dose of peptides in T cell assays.
# The maximum response in a titration of each peptide is expressed as the stimulation index (S.I.). The S.I. is the counts per minute (CPM) incorporated by cells in response to peptide, divided by the CPM incorporated by cells in medium only. […] The positive results were used in calculating mean stimulation indices for each peptide for the individual patient tested.
# The above procedure was followed with 18 patients in the studies using peptides derived from Der p I and Der f I (FIGS. 31a-b), and 21 patients in the studies with Der p II peptides (FIGS. 32a-b). Individual patient results were used in calculating the mean S.I. for each peptide if the patient responded to the Der p I or Der p II protein at an S.I. of 2.0 or greater and the patient responded to at least one peptide derived from a house dust mite allergen at an S.I. f 2.0 or greater. A summary of positive experiments from the patients tested is shown in FIGS. 32a and 32b and FIGS. 33a and 33b. The bars represent the positivity index. […] In parenthesis above each bar are the mean stimulation indices for each peptide or protein for the group of patients tested.
# Autologous EBV-transformed cell lines were γ-irradiated with 25,000 Rad and used as antigen presenting cells in secondary proliferation assays and secondary bulk stimulations. These EBV-transformed cell lines were made by incubating 5×10^6 PBL with 1 ml of B-59/8 Marmoset cell line (ATCC CRL1612, American Type Culture Collection, Rockville, Md.) conditioned medium in the presence of 1 μg/ml phorbol 12-myristate 13-acetate (PMA) at 37° C. for 60 minutes in 12×75 mm polypropylene round-bottom Falcon snap cap tubes (Becton Dickinson Labware, Lincoln Park, N.J.). These cells were then diluted to 1.25×10^6 cells/ml in RPMI-1640 as described above except supplemented with 10% heat-inactivated fetal bovine serum and cultured in 200 μl aliquots in flat bottom culture plates until visible colonies were detected. They were then transferred to larger wells until the cell lines were established.
# human IgE = assay: direct binding ELISA of IgE to mite allergen proteins and peptides; settings: plasma of 19 mite-allergic patients and pool of 18; Example XV
# Protocol: The coating antigens were removed and the wells are blocked with 0.5% gelatin in PBS, 300 μl/well for 2 hours at room temperature. Pooled human plasma (a mix of plasma samples from 20 patients that were skin test positive for commerical mite extract) was serially diluted with PBS-Tween 20 (PBS with 0.05% nonionic detergent Tween-20 Sigma, St. Louis, Mo.) and 100 μl/well a.backslash.was added and incubated overnight at 4° C. (plasma dilutions were tested in duplicate). The second antibody (biotinylated goat anti-Human IgE, 1:1000, Kirkegaard & Perry Laboratories Inc, Gaithersburg, Md.), was added at 100 μl/well for one hour at room temperature. This solution was removed and streptavidin-HRPO, 1:10000, (Southern Biotechnology Associates, Inc., Birmingham, Ala.) was then added at 100 μl/well for one hour at room temperature (all wells are washed three times with PBS-Tween between each incubation step). TMB Membrane Peroxidase Substrate system (Kirkegaard & Perry Laboratories) was freshly miced, and added at […]. The color was allowed to develop for 2-5 minutes. The reaction was stopped by the addition of […] of 1M phosphoric acid. Plates were read on a Microplate IL310 Autoreader (Biotech Instruments, Winooski, Vt.) with a 450 nm filter. The absorbance levels of duplicate wells were averaged. The order of coating antigens listed vertically in these figure legends corresponds in orDer from left to right to the coating antigens listed for each histogram.
# The antigen preparation that was used as a positive control was a mixture of the four major biochemically purified mite allergens (term PMA for Purified Mite Allergen); Der f I, Der f II, Der p I and Der p II. The stock was generated at a concentration of 100 μgs of each protein per millimeter or 400 μgs total protein/ml. This preparation was used on each coated ELISA plate.
# [4] = system: T cell lines primed in vitro to Der f I; assay: secondary proliferation of Der f I-primed T cell lines (Examples VI, VII, XI); format: cell-based, human; settings: Der f I primed; 8 positive experiments; FIG. 8
# Protocol: Experiments similar to those of Example V were performed to determine. the T cell-reactive areas of the Der f I protein. For example, PBMC from house dust mite-allergic patient 783 were isolated as described in Example V and were stimulated in vitro-- with recombinant purified Der f I at 20 μg/ml. The results of the proliferation assay with Der f I peptides using x-irradiated (3500 Rads) autologous PBMC as antigen presenting cells indicate that T cells from this patient respond to the peptides DF I-8.1, DF I-9, DF I-6, DF I-10, DF I-2.1, DF I-3, DF I-11, DF I-5, DF I-1, and DF I-17 (data not shown).
# The above procedure was followed in a number of patients except in individual cases, T cell lines were primed with affinity purified Der f I at 20 μg/ml or at 10 μg/ml and x-irradiated (25,000 Rads) autologous Epstein-Barr virus transformed B cells were used as antigen presenting cells. […]
# Similarly, the procedure described in Example VI was followed with T cell lines from 9 patients primed in vitro to the Der f I protein then analyzed for response to selected peptides derived from the protein. The data was analyzed as described in Example VI. […]
# [5] = system: T cell lines primed in vitro to Der p I; assay: secondary proliferation of Der p I-primed T cell lines (Examples V, VII, XI); format: cell-based, human; settings: overlapping Der p I peptides; 33 positive experiments
# Outline: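 PBMC were primed with native or recombinant Der p I (10 or 20 μg/ml) for 7 days, then expanded with IL-2 and IL-4. Resting T cells (2×10^4) were cultured 3 days with irradiated autologous EBV-B cells or PBMC and titrated protein or peptides, then pulsed 16 h with 1 μCi ³H-thymidine. S.I. was peak-response CPM over medium-only CPM, with S.I. ≥2.0 scored positive.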
# [6] = system: PBMC from mite-allergic patient; assay: primary T cell (PBMC) proliferation, mite-allergic patient, tritiated thymidine; format: cell-based, human; settings: medium 1071 ± 30
# Protocol: Peripheral blood mononuclear cells (PBMC) were purified by Ficoll-Hypaque centrifugation of a peripheral blood specimen from mite-allergic patient and were assayed for proliferation in response to various antigens, i.e., affinity-purified Der p I, affinity purified Der p II, various Der p I and Der p II peptides. For assay, 5×10^4 PBMC were cultured in triplicate microwells for 7 days at 37° C. in the presence of various concentrations of antigen in 200 μl RPMI-1640 containing 5% human AB serum. Each well then received 1 μCi tritiated thymidine for 16 hours. The counts incorporated were collected onto glass fiber filters and processed for liquid scintillation counting. […] The CPM +/- standard deviation are shown. The stimulation index of each response (S.I.) is the ratio of the ^3 H-thymidine CPM incorporated by the cells in response to antigen divided by the ^3 H-thymidine CPM incorporated by cells in medium only. […] Thus, these peptides contain Der p I or Der p II T cell epitopes recognized by T cells from this particular allergic patient.
Substance,T cell response to Der f II peptides [2],T cell reactivity [1],T cell response [1],"T cell response, Group I peptides [3]",other results
DP II-25.2: Der p II peptide (TVKVLGDDGVLASAIATHAKIRD),–,–,–,–,"ranked sum of peptide responses ([1]; FIG. 18b, preferred Der p II peptides): highest ranked sum"
DF II-15: Der f II peptide (KIEIKASLDGLEIDVPGIDTNACHFMK),respond significantly,significant areas of T cell reactivity,respond well,–,–
DF II-13.1: Der f II peptide (HGSDPCIIHRGKPFTLEALFDANQNTKTA),–,significant areas of T cell reactivity,–,–,–
DF II-1: Der f II peptide (DQVDVKDCANNEIKKVMVDG),respond significantly,significant areas of T cell reactivity,respond well,–,–
DP I-23.35: modified Der p I peptide (DEKEGVVQESYYRYVAREQSCRRPNADKE),–,–,–,positive T cell studies,"positive T cell responses, modified peptides ([3]; 18 T cell lines, affinity purified Der p I primed, FIG. 31a): all eighteen T cell lines responded positively; IgE binding (ELISA), modified peptides (human IgE): No plasma samples contained IgE"
DP I-4: Der p I peptide (VAATESAYLAHRNQSLDLAEQ),–,–,–,positive response,T cell response to Der p I peptides [4]: respond significantly; T cell reactivity [5]: significant regions of T cell reactivity
DF II-19.1: Der f II peptide (VVTVKLVGDNGVLACAIATHAKIRD),respond significantly,significant areas of T cell reactivity,–,–,–
DF II-16: Der f II peptide (LEIDVPGIDTNACHFMKCPLVKGQQY),–,–,respond well,–,–
DP I-2: Der p I peptide (EIDLRQMRTVTPIRMQGGCGSCWAFSG),–,–,–,positive response,CPM ± S.D. ([6]; 10 μg/ml): 1395 ± 47 CPM; CPM ± S.D. ([6]; 30 μg/ml): 1283 ± 34 CPM; CPM ± S.D. ([6]; 100 μg/ml): 1486 ± 38 CPM; T cell reactivity [5]: significant regions of T cell reactivity
DF II-3.1: Der f II peptide (HRGKPFTLEALFDANQNTK),–,–,respond well,–,–
